# According to PubChem BioAssay AID179 (DTP/NCI, 2004):
# “And” between values parts separate entries of the source, which are not always exact repeats. Equal values may be shown once. The source made the active and inactive calls.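 The calls were made as follows: active = compounds giving half or more protection of infected cells from virus-caused growth loss, again on retest; inactive = the rest.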
# Test system: CEM cells HIV-1 protection, formazan growth assay
# Test: NCI AIDS Antiviral Assay
# Details: for IC50: measured here: growth of uninfected CEM cells
# In short: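 Five concentrations of each compound were applied to infected and uninfected human CEM cells. Protection from HIV-1 was judged from growth measured with a soluble formazan assay.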
SMILES,EC50 [µM],IC50,outcome
CC(=O)NCCC1CNc2ccccc21 (stereo not drawn),> 200,> 200 µM,
CCCc1cc(=O)oc2c3c(c4c(c12)OC(C)(C)CC4)O[C@H](C)[C@@H](C)[C@H]3O,> 200,10.7 µM,
O=C(O)/C=C/C(=O)Nc1ncn[nH]1,> 1380,1320 µM,
O=S1c2ccccc2Sc2ccccc21,75.9,174 µM,
c1ccc(C[P+](c2ccccc2)(c2ccccc2)c2ccc3ccccc3c2-c2c([P+](Cc3ccccc3)(c3ccccc3)c3ccccc3)ccc3ccccc23)cc1,> 257,0.389 µM and 2.51 µM,
CC12CCC(C)(c3cc(O)c(O)cc31)c1cc(O)c(O)cc12,,,inactive
CCOC(=O)Cc1c(C)c2ccc(OC(C)=O)c(OC(C)=O)c2oc1=O,> 200,36.3 µM,
CC1(c2cccc3ccc(F)cc23)OC(=O)c2ccccc21 (stereo not drawn),> 41.7,7.94 µM,
CCCCN=C(NC#N)NCCCC,> 457,224 µM,
NCCCNC(=O)c1csc(NC(=O)c2csc(NC(=O)CCCN)n2)n1,> 437,174 µM,
ClC1(c2ccccc2)c2ccc(Br)cc2-c2cc(Br)ccc21,> 200,5.75 µM,
CO[C@@]12[C@@H]3N[C@@H]3CN1C1=C(C(=O)C(N3CCOCC3)=C(C)C1=O)[C@@H]2COC(N)=O,> 200,> 200 µM,
CC(=O)Nc1ccc(C2=N/C(=C\c3ccc(Cl)cc3)C(=O)O2)cc1,> 11,> 11 µM,
c1ccc2c(c1)CCc1c(-c3noc4c3CCc3ccccc3-4)noc1-2,> 148,> 148 µM,
COc1cc2c([C@@H](OC(=O)c3ccccc3)c3ccc4c(c3)OCO4)nccc2c(OC)c1OC,,,inactive
CC(C)(C)C(=O)O/C=C\OC1CCCC1(c1ccccc1)c1ccccc1 (stereo not drawn),> 200,9.55 µM,
N#CC1(C#N)C(C#N)(C#N)C12CCCC2,> 20,10.5 µM,
N#C/C(=C\c1cccc2ccccc12)c1ccc(Cl)cc1,> 200,95.5 µM,
COc1ccc2c(=O)c(-c3ccc4c(c3)OCO4)c(C)oc2c1,> 200,42.7 µM,
CC(=O)[O-].O=[N+]([O-])c1ccc([O-])c(C=NCCN=Cc2cc([N+](=O)[O-])ccc2[O-])c1.[Mn+3],> 229,4.37 µM,
Cc1ccc(C(=O)O)c(/C=C2\Cc3cc(C)cc(C)c3C2=O)c1,,,inactive
CCOC(=O)c1ncoc1[C@H]1COC(C)(C)O1,,,inactive

SMILES,EC50 [µM],IC50,outcome
CC1c2c(n(C)c3ccccc23)C2CCC3(CO3)C1N2Cc1ccccc1 (stereo not drawn),,,inactive
S=C(Nc1cccc2ccccc12)NN1CCCCCC1,> 17.4,> 17.4 µM,
CC/C(Cl)=N\OC(=O)Nc1ccc(F)cc1F,> 20,3.47 µM,
Cc1nc2cc(C(=O)NC=O)c3n[nH]nc3c2n1C,> 200,> 200 µM,
COc1cc(OC)c2c(O)c3c(c(-c4ccc5cc6c(c(O)c5c4O)C(=O)CC(C)(O)C6)c2c1)CC(C)OC3C (stereo not drawn),,,inactive
O=C(O)c1ccc(CSc2ccc(Cl)cc2)c([N+](=O)[O-])c1,> 209,95.5 µM,
CCN(CC)C(C)(C)C(=O)/C=C/c1ccc(C)cc1,,,inactive
COC12OC3(C4OC41)C(C(=O)O[C@H]3CO[Si](C)(C)C(C)(C)C)C2S(=O)(=O)c1ccccc1 (stereo partly drawn),> 200,129 µM,
C/C=C(\C)C(=O)N1c2ccccc2CC1c1c(C)[nH]c2ccccc12 (stereo not drawn),> 21.9,6.92 µM,
COc1ccc(C(=C(Cl)c2ccccc2)c2ccc(OC)cc2)cc1,> 200,47.9 µM,
CC(=O)C(=C(I)I)c1ccccc1,,,inactive
COC(c1ccsc1)C(C#N)(C#N)N=Cc1ccsc1 (stereo not drawn),> 200,16.2 µM,
COc1cc(O)c(C(=O)c2ccccc2)cc1S(=O)(=O)O,> 776,> 776 µM,
O=C(NCc1cccc(C(F)(F)F)c1)c1cc2sccc2nc1C(F)(F)F,> 200,> 200 µM,
Cc1ccc(O)c(C(c2ccc(C(c3cc(C)ccc3O)c3cc(C)ccc3O)cc2)c2cc(C)ccc2O)c1,> 20,3.09 µM,
CC(=O)NC1C(OCc2ccccc2)OC(CO)C(O)C1OC(C)C(=O)NC(C)C(=O)NC(CCC(=O)NCCCNc1c2ccccc2nc2cccc([N+](=O)[O-])c12)C(N)=O (stereo not drawn),> 100,1.15 µM,
CCn1c2ccc(C(=O)CCCN(C)C)cc2c2cc(C(=O)CCCN(C)C)ccc21,> 380,0.123 µM,
O=[N+]([O-])c1c(O)c2nonc2c2nn(-c3ccccc3)nc12,> 200,120 µM,
C[C@]12CCNC(=O)C=C1CC[C@@H]1C2CC[C@@]2(C)C1CC[C@@H]2OC(=O)COc1ccc(N(CCCl)CCCl)cc1 (stereo partly drawn),,,inactive
O=C(O)c1cc(/C=C/c2cc(O)ccc2O)ccc1O,> 182,15.5 µM,
O=C1COC(c2ccccc2O)=NN1CCCN1CCCC1,> 525,372 µM,
CC(C)(C)[C@H]1CO[C@]2(c3ccccc3)[C@@H]3C[C@@H]3C(=O)N12,,,inactive
